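Compound exposure: 48 hours, 5 concentrations, 96-well plates. TGI: total growth inhibition.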
Experiments:
Assay in all cases: growth of human tumour cells (NCI), 48 h
786-0 renal = tested on: 786-0 renal
SNB-75 CNS = tested on: SNB-75 CNS
UO-31 renal = tested on: UO-31 renal
U251 CNS = tested on: U251 CNS
SW-620 colon = tested on: SW-620 colon
KM12 colon = tested on: KM12 colon
UACC-257 melanoma = tested on: UACC-257 melanoma
MALME-3M melanoma = tested on: MALME-3M melanoma
TK-10 renal = tested on: TK-10 renal
MCF7 breast = tested on: MCF7 breast
MDA-MB-435 = tested on: MDA-MB-435
SK-MEL-28 melanoma = tested on: SK-MEL-28 melanoma
BT-549 breast = tested on: BT-549 breast
SK-OV-3 ovarian = tested on: SK-OV-3 ovarian
NCI-H23 lung = tested on: NCI-H23 lung
NCI-H226 lung = tested on: NCI-H226 lung
IGROV1 ovarian = tested on: IGROV1 ovarian
UACC-62 melanoma = tested on: UACC-62 melanoma
SNB-19 CNS = tested on: SNB-19 CNS
CAKI-1 renal = tested on: CAKI-1 renal

Compound | TGI (786-0 renal) [µM] | TGI (SNB-75 CNS) [µM] | TGI (UO-31 renal) [µM] | TGI (U251 CNS) [µM] | TGI (SW-620 colon) [µM] | TGI (KM12 colon) [µM] | TGI (UACC-257 melanoma) [µM] | TGI (MALME-3M melanoma) [µM] | TGI (TK-10 renal) [µM] | TGI (MCF7 breast) [µM] | TGI (MDA-MB-435) [µM] | TGI (SK-MEL-28 melanoma) [µM] | TGI (BT-549 breast) [µM] | TGI (SK-OV-3 ovarian) [µM] | TGI (NCI-H23 lung) [µM] | TGI (NCI-H226 lung) [µM] | TGI (IGROV1 ovarian) [µM] | TGI (UACC-62 melanoma) [µM] | TGI (SNB-19 CNS) [µM] | TGI (CAKI-1 renal) [µM]
O=C1C=C(N2CCCC2)C(=O)c2c(O)ccc(O)c21 | > 10 | > 10 | > 10 | > 1 | > 10 | > 10 | > 10 | > 10 | > 10 | > 10 | > 1 | > 10 | > 10 | > 10 | > 1 | > 10 | > 10 | > 10 | > 10 | 
c1ccc2c(c1)nc1n2CCNC1 | > 100 | > 100 | > 100 | > 100 | > 100 | > 100 | > 100 |  | > 100 | > 100 | > 100 | > 100 | > 100 | > 100 | > 100 | > 100 | > 100 | > 100 | > 100 | > 100
CC(=O)c1cc2c(s1)C(=O)c1scc(C(C)=O)c1C2=O | 1.9 | 2.65 | 1.31 | 0.628 |  | 3.39 | 0.544 | 1.9 | 9.9 |  | 0.496 | 1.59 | 2.68 | 4.86 | 1.72 | 3.57 | 1.37 | 0.692 | 2.42 | 2.34
Cn1nc(-c2ccccc2)c(N=[N+]=[N-])cc1=O | > 100 |  | > 100 | > 100 | > 100 | > 100 | > 100 | > 100 | > 100 |  |  | > 100 |  | > 100 | > 100 | > 100 | > 100 | > 100 | > 100 | > 100
CC1=NC2(CCCCC2)N(Cl)C(=O)C1SC#N (stereo not drawn) | 31.9 | 44.5 | 32.9 | 37.4 | 62.6 | 42.6 |  | 41.9 | 35.1 | 48.9 | 37.7 | 34.9 | 28.5 |  | 58.9 | 40.1 | 34.4 | 27.2 | 49.9 | 
Cc1ccc(S(=O)(=O)NC(=O)NC(Cc2ccccc2)C(=O)O)cc1 (stereo not drawn) | > 100 | > 100 | > 100 | > 100 | > 100 | > 100 | > 100 | > 100 | > 100 | > 100 |  | > 100 | > 100 | > 100 | > 100 |  | > 100 | > 100 | > 100 | 
OC12C3C4CC5C(C4[C@@H]1Br)C2[C@@](O)(c1c(F)c(F)c(F)c(F)c1F)C53 (stereo partly drawn) | > 100 |  | 95.2 | > 100 | > 100 | 34.5 | > 100 |  | > 100 | 43.7 | > 100 | > 100 | > 100 |  | > 100 |  | > 100 | > 100 | > 100 | 43.8
N#Cc1nc(C(F)(F)F)oc1N | > 100 | > 100 | > 100 | > 100 | > 100 | > 100 | > 100 | > 100 | > 100 | > 100 | > 100 | > 100 |  | > 100 | > 100 | > 100 | > 100 | > 100 | > 100 | > 100
N#CC(c1nc2ccccc2s1)c1nc(Cl)ncc1Br (stereo not drawn) | > 100 | 71 | > 100 | > 100 | > 100 | > 100 | > 100 | > 100 | > 100 |  | > 100 | > 100 | 80.5 | > 100 | 73.9 | > 100 | > 100 |  | > 100 | > 100
COc1ccc(C[C@H]2NC(=O)/C=C/C[C@@H]([C@H](C)[C@H]3O[C@@H]3c3ccccc3)OC(=O)[C@H](CC(C)C)OC(=O)[C@H](C)CNC2=O)cc1 | > 0.0001 | > 9.19e-05 | > 0.0001 | > 0.0001 | > 0.0001 | > 0.0001 | > 0.0001 | > 0.0001 | > 0.0001 | > 0.0001 | 1.45e-05 | > 0.0001 |  | > 0.0001 | > 7.34e-05 | > 7.26e-05 | > 0.0001 | 3.38e-05 | > 0.0001 | > 0.0001
COc1ccc(-c2cc(C3CC3)nc(SCC(=O)O)c2C#N)cc1 | > 100 | > 100 | 11.1 | > 100 | > 100 | > 100 | > 100 |  | > 100 | > 100 | > 100 | > 100 | > 100 | > 100 | > 100 | > 100 | > 100 | > 100 | > 100 | > 100
Nc1nc2cc(CNc3ccc(C(=O)O)cc3)ccc2nc1-c1ccccc1 | > 100 | > 100 | > 100 | > 100 | > 100 |  | > 100 | > 100 | > 100 | > 100 | > 100 | > 100 | > 100 | > 100 | > 100 | > 100 | > 100 |  | > 100 | 
CCCN=C1Nc2ccccc2[C@@H]2N(C)c3ccccc3C(C)C[C@]12C (stereo partly drawn) | 33.9 | 49.8 | 98.9 |  | 36 | 34.9 | 25.6 | 32.5 | 34.2 | 49.3 | 34 | 33.5 |  |  | 37.3 | 73.4 | 43.5 | 33.2 | 44.8 | 84.5
CCC(C)NC(=S)N/N=C(\C)c1ccccn1 (stereo not drawn) | > 100 |  | 16.8 | > 100 | > 100 | > 100 |  | > 28.3 | > 100 |  | > 100 | > 100 | > 100 | > 100 | > 100 | 6.83 | > 30.7 | > 30 | > 100 | > 100
CC1(C)CC(=O)C2=C(C1)NC(SCC(=O)O)=C(C#N)C2c1ccc(Br)cc1 (stereo not drawn) | > 100 | > 100 | 15.6 | > 100 | > 100 | > 100 | > 100 |  | > 100 | > 100 | > 100 | > 100 | > 100 | > 100 | > 100 | > 100 | > 100 | > 100 | > 100 | > 100
CCn1nc(-c2ccccc2)c2c1N(C)c1ccccc1-n1c(-c3ccccc3)nnc1-2 | 30.6 | 15.7 | 40.5 | 28.2 | 29.6 |  |  |  | 31.1 | 19.8 | > 100 | 33.1 |  | 38.5 | 28.2 | 52.7 | 40.3 | 26.6 | 32.4 | 
OCc1c2c(cc3c1CC1(C3)Cc3cc4c(c(CO)c3C1)CCC4)CCC2 | 27.7 |  | 3.22 | 29.4 |  | 31.2 | 23.8 | 30 | 36.2 | 44.6 | 36.9 |  |  | 33 | 29.8 | 28.5 | 30.2 | 32.6 |  | 
O=C1c2n[nH]nc2C(=O)c2n[nH]nc21 | > 100 | > 100 | > 100 | > 100 | > 100 | > 100 | > 100 |  | > 100 | > 100 | > 100 | > 100 |  | > 100 | > 100 | > 100 | > 100 | > 100 | > 100 | > 100
O=c1[nH]c2nccnc2c2c([N+](=O)[O-])cccc12 | > 100 | > 100 | > 100 | > 100 | > 100 | > 100 |  | > 100 | > 100 | > 100 | > 100 | > 100 | > 100 | > 100 | > 100 | > 100 | > 100 | > 100 | > 100 | 
Cc1ccc(S(=O)(=O)Nc2nc3ccccc3c(=O)n2C2CCCCC2)cc1 | > 100 | > 100 | > 100 | > 100 | > 100 | > 100 | > 100 |  | > 100 | > 100 | > 100 | > 100 | > 100 | > 100 | > 100 | > 100 | > 100 | > 100 | > 100 | > 100
N#Cc1ccc(/C=N/NC(=O)CSCC(=O)N/N=C/c2ccc(C#N)cc2)cc1 | > 100 | 81.9 | > 100 | > 100 | > 100 | > 100 | > 100 | > 100 | > 100 | > 100 | > 100 | > 100 |  | > 100 | > 100 | > 100 | > 100 | > 100 | > 100 | > 100
O=c1c(/C=C/c2c(O)ccc3ccccc23)nnc2sc(-c3cccc([N+](=O)[O-])c3)nn12 | > 100 |  | > 100 | > 100 | > 100 | > 100 | 51 | 47.3 | 89.3 |  | > 100 | > 100 | > 100 | > 100 | > 100 |  | > 100 | 43.9 |  | > 100
N#CN=C1c2ccccc2C(=NC#N)c2cc(CO)ccc21 | > 100 | 60.7 | > 100 | > 100 | > 100 | > 100 | > 100 |  | > 100 | 83.1 | 80.3 | > 100 | 95.6 |  | > 100 | > 100 | 90.7 |  | > 100 | > 100
CC(=O)N1CC(C)(C)c2c1cc(C)c(O)c2C | > 100 |  | > 100 | > 100 | > 100 | > 100 | > 100 |  | > 100 | > 100 | > 100 | > 100 |  | > 100 | > 100 | > 100 | > 100 | > 100 | > 100 | 
c1nncn1C12C3C4C5C3C1C5C42 (stereo not drawn) | > 100 | > 100 |  | > 100 | > 100 | > 100 | > 100 |  | > 100 | > 100 | > 100 | > 100 | > 100 | > 100 | > 100 | > 100 | > 100 |  | > 100 | 
CC(C)(C)OC(=O)NC1CCCC1C(O)(C1=CCCC1)C1=CCCC1 (stereo not drawn) | > 100 | > 100 |  | > 100 | > 100 | > 100 | > 100 |  |  |  | > 100 | > 100 | > 100 | > 100 | > 100 | > 100 | > 100 | > 100 | > 100 | 
N#CCN1CCCCCc2ccccc21 | > 100 | > 100 | > 100 | > 100 | > 100 | > 100 | > 100 | > 100 | > 100 | > 100 | > 100 | > 100 |  | > 100 | > 100 | > 100 | > 100 | > 100 | > 100 | 

From PubChem BioAssay (NCI)
